The text below walks through data of ChEMBL document CHEMBL1153748 (J Med Chem, 2010).

Series [1] can be described thus: Oral bioavailability in Balb/c mouse at 10 mg/kg daily. As to conditions: in vivo.
Series [2] concerns the target T1, Peroxisome proliferator-activated receptor delta (Homo sapiens, UniProt Q03181).
T1 sequence (Q03181 whole entry): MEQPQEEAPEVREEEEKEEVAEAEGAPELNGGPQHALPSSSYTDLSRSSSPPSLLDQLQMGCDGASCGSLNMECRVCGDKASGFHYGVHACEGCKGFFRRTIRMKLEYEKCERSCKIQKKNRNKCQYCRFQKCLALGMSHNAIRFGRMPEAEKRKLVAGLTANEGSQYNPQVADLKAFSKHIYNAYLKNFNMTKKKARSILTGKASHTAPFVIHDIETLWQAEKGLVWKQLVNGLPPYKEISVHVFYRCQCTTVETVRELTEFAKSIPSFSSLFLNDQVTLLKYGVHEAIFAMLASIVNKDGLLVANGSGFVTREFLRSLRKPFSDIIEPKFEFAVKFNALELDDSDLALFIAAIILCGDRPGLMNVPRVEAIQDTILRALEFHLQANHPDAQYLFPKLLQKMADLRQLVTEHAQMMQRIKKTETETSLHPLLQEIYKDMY

A short description of series [3]: Half life in Balb/c mouse at 10 mg/kg, po qd. The following applies: in vivo.
Series [4] can be described thus: Cmax in Balb/c mouse at 10 mg/kg, po qd. As to conditions: in vivo.
Series [5] is described as follows: AUC ((0 to 24 hrs)) in Balb/c mouse at 10 mg/kg, po qd. As to conditions: plasma.
The target in series [6] is Peroxisome proliferator-activated receptor delta (Homo sapiens) (UniProt Q03181). Briefly: Agonist activity at human PPARdelta by FRET assay.
Series [7] relates to Mus musculus. Briefly: Upregulation of UCP3 expression in C57BL/6 mouse at 10 mg/kg, po qd relative to control. The series is classed as functional.
In series [8] the test system is Mus musculus. The series can be described thus: Upregulation of PDK4 expression in C57BL/6 mouse at 10 mg/kg, po qd relative to control. The format is functional.
Series [9] concerns the target T1, Peroxisome proliferator-activated receptor delta. The source holds these as a separate data set.
For series [10], the target named is T2, Peroxisome proliferator-activated receptor gamma (Homo sapiens, UniProt P37231).
T2 sequence (P37231 whole entry): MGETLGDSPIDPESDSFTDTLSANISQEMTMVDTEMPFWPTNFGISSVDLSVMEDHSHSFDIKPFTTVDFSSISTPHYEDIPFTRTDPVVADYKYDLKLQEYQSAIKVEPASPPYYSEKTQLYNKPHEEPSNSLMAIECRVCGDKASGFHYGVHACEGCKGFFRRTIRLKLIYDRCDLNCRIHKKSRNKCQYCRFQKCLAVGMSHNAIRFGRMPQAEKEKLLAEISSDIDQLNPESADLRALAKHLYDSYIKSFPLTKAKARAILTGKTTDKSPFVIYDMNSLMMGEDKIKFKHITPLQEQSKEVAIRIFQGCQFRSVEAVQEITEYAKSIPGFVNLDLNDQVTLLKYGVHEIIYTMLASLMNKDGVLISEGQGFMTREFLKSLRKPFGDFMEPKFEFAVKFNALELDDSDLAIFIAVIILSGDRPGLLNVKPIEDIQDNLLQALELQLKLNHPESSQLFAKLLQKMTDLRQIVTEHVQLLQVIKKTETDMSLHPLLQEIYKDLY
The format is cell-based, 293T. The following applies: read-out: EC50.

In series [11] the target is T3, Peroxisome proliferator-activated receptor alpha (Homo sapiens, UniProt Q07869).
T3 sequence (Q07869 whole entry): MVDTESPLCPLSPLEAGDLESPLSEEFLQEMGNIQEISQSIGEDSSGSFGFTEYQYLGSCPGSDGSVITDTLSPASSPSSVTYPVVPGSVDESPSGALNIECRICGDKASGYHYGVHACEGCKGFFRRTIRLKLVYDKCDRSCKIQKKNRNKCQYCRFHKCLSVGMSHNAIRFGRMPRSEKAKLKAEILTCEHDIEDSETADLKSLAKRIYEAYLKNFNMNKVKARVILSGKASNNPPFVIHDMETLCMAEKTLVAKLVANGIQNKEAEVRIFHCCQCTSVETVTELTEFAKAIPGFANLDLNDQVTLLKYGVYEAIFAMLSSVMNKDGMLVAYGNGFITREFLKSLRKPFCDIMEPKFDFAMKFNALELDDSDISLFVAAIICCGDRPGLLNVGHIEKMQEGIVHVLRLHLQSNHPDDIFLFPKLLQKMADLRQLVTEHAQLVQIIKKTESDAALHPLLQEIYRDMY
Briefly: Agonist activity at human PPARalpha ligand binding domain expressed in human 293T cells co-transfected with Gal4-DBD by luciferase transactivation assay. The format is cell-based. The following applies: read-out: EC50.

Series [12] concerns the target T4, Peroxisome proliferator-activated receptor alpha (Homo sapiens) (UniProt Q07869).
T4 sequence (whole entry): T3 sequence (Q07869 whole entry)
The series can be described thus: Agonist activity at human PPARalpha ligand binding domain expressed in human 293T cells co-transfected with Gal4-DBD by luciferase transactivation assay relative to KRP297. The series is classed as cell-based.

Some results are limits rather than exact numbers.

What is called bioavailability is the share of a dose that reaches the circulation, judged against a reference dose that is usually intravenous. The term EC50 denotes the concentration giving half of the maximal effect. What is called half-life is the time needed for the level to fall by half in the phase considered. As usually defined, the Cmax is the highest concentration seen after dosing. As usually defined, the AUC is concentration integrated over time. `Cc1cc(OCc2nc(-c3ccc(N4CCOCC4)cc3)c(-c3ccc(-c4ccccc4)cc3)s2)ccc1OCC(=O)O`: the bioavailability in series [1] amounted to 30%. For the same molecule, the EC50 in [2] was found to be 14 nM; in [6], 72 nM; in [9] it was 18 nM. This molecule also showed a half-life in series [3] of 5.1 h. The molecule also had a Cmax in series [4] of 2700 nM. The same molecule displayed an AUC at 24 h in [5] of 31.9 µM·h. Besides, the figures for the “fold change (FC)” value with Mus musculus [7] and in the series on Mus musculus [8] were 2.5 and 1.4, respectively.
As to `CCCc1ccc(-c2oc(COc3ccc(OCC(=O)O)c(C)c3)nc2-c2cnc(OC)nc2)cc1`, in [1], the bioavailability was determined as 41%. For the same molecule, the values for the EC50 in series [2], in [6] and in [9] were 10 nM, 30 nM and 9 nM, respectively. For the same molecule, the half-life in series [3] is 2.7 h. In [4], this molecule had a Cmax of 2200 nM. For the same molecule, the AUC at 24 h in series [5] is 6.42 µM·h. Further, the “fold change (FC)” value is given as 2.5 with Mus musculus [7] and 2 in the series on Mus musculus [8].
In the case of `Cc1cc(OCc2nc(-c3ccc(OC(C)C)cc3)c(-c3ccc(OC(F)(F)F)cc3)s2)ccc1OCC(=O)O`, in series [1], the bioavailability turned out to be 88%. In addition, the concentration for a half-maximal effect (EC50) in [10] was over 10000 nM; in series [11], over 10000 nM; in series [2] it was 10 nM; in [6], 26 nM; in [9] it was 7 nM. For the same molecule, in series [3], the half-life is 9 h. Further, the Cmax in [4] turned out to be 3700 nM. Also, the AUC at 24 h in series [5] amounted to 54.1 µM·h. Also, the “fold change (FC)” value with Mus musculus [7] turned out to be 2.4; in the series on Mus musculus [8], 1.9.
As for `Cc1cc(OCc2nc(-c3ccc(OC(C)C)nc3)c(-c3ccc(OC(F)(F)F)cc3)s2)ccc1OCC(=O)O`, the bioavailability in series [1] came to 72%. In addition, the half-maximal effective concentration (EC50) was over 10000 nM in series [10]; over 10000 nM in [11]; 12 nM in [2]; 13 nM in series [6]; 8 nM in series [9]. Moreover, the half-life in series [3] is 10.8 h. Also, the highest concentration (Cmax) in series [4] stood at 4700 nM. In series [5], the AUC at 24 h was 62.9 µM·h. For the same molecule, the “fold change (FC)” value in the series with Mus musculus [7] is reported as 2.9; with Mus musculus [8], 1.9.
`Cc1cc(OCc2nc(-c3ccc(N4CCOCC4)nc3)c(-c3ccc(OC(F)(F)F)cc3)o2)ccc1OCC(=O)O`: the bioavailability in series [1] turned out to be 18%. In addition, the 50% effective concentration (EC50) amounted to 2490 nM in series [10], 1200 nM in series [11], 5 nM in series [6] and 2 nM in series [9]. In series [12], this molecule registered an Efficacy of 46%. In [3], the half-life was 3.8 h. Moreover, in series [4], the highest level (Cmax) was 700 nM. The molecule also came in with an exposure (AUC) at 24 h in series [5] of 1.95 µM·h.
`Cc1cc(SCc2sc(-c3ccc(C(F)(F)F)cc3)nc2C)ccc1OCC(=O)O` [GW501516] had a half-life in [3] of 4.4 h. In addition, the highest level in [4] (Cmax) was 3900 nM. In [5], this molecule registered an AUC at 24 h of 29.8 µM·h. For the same molecule, the “fold change (FC)” value turned out to be 3.2 with Mus musculus [7] and 2.5 in the series on Mus musculus [8].
In turn, `COc1ccc(-c2nc(COc3ccc(OCC(=O)O)c(C)c3)oc2-c2ccc(OC(F)(F)F)cc2)cn1` gave a bioavailability in [1] of 89%. For the same molecule, the EC50 in [10] is over 10000 nM; in series [11], over 10000 nM; in series [2], 10 nM; in series [6], 97 nM; in series [9], 8 nM. For the same molecule, in series [3], the half-life was 2.5 h. The molecule further gave a Cmax in series [4] of 13700 nM. Moreover, the AUC at 24 h in [5] was found to be 96.8 µM·h. Moreover, the “fold change (FC)” value is given as 1.4 with Mus musculus [7] and 1.2 in the series on Mus musculus [8].
`Cc1cc(OCc2nc(-c3ccc(OC(C)C)cc3)c(-c3ccc(C(F)(F)F)cc3)s2)ccc1OCC(=O)O` had a bioavailability in series [1] of 70%. The EC50 in series [2] worked out at 16 nM; in series [6], 20 nM; in series [9], 11 nM. The molecule further gave a half-life in [3] of 3.9 h. The molecule further yielded a Cmax in series [4] of 2800 nM. The same molecule showed an AUC at 24 h in [5] of 37.3 µM·h. Moreover, the “fold change (FC)” value in the series with Mus musculus [7] is 1.7; with Mus musculus [8], 1.1.
As for `CCCc1ccc(-c2sc(COc3ccc(OCC(=O)O)c(C)c3)nc2-c2ccc(OC(C)C)cc2)cc1`, the concentration giving a half-maximal response (EC50) was 13 nM in series [2], 17 nM in series [6] and 11 nM in series [9].
As for `Cc1cc(OCc2nc(-c3cccnc3)c(-c3ccc(-c4ccccc4)cc3)o2)ccc1OCC(=O)O`, the bioavailability in [1] is 10%. Also, the 50% effective concentration (EC50) in [2] worked out at 6 nM; in [6], 30 nM; in series [9], 8 nM. For the same molecule, in [3], the half-life is 4 h. Further, the peak level in [4] (Cmax) was 400 nM. In series [5], this molecule returned an AUC at 24 h of 0.814 µM·h.
For the molecule `CCOC(Cc1ccc(OCc2nc(-c3ccc(OC)cc3)c(-c3ccc(C(F)(F)F)cc3)s2)cc1)C(=O)O` (stereo not given), the EC50 in series [10] was found to be 1310 nM; in series [11], 1090 nM; in series [9], 1870 nM. The molecule further had an Efficacy in series [12] of 37%.
Taken in the same sequence, the figures for `Cc1cc(OCc2nc(-c3cnc(OC(C)C)nc3)c(-c3ccc(OC(F)(F)F)cc3)o2)ccc1OCC(=O)O` were 980 nM, 160 nM, 1 nM and 82%.
Regarding `Cc1cc(OCc2nc(-c3ccc(OC(C)C)cc3)c(-c3ccc(-c4ccccc4)cc3)s2)ccc1OCC(=O)O`, the results for the EC50 in [2], in series [6] and in series [9] were 10 nM, 29 nM and 9 nM, respectively. Also, the “fold change (FC)” value in the series with Mus musculus [7] amounted to 2.4; in the series on Mus musculus [8], 1.5.
For `Cc1cc(OCc2nc(-c3ccc(OC4CCCC4)cc3)c(-c3ccc(OC(F)(F)F)cc3)s2)ccc1OCC(=O)O`, the bioavailability in series [1] amounted to 19%. Further, the EC50 in [10] was over 10000 nM; in [11], over 10000 nM; in [2], 15 nM; in series [6] it was 31 nM; in series [9], 10 nM. In series [3], the half-life is 7.6 h. This molecule also showed a Cmax in series [4] of 1200 nM. This molecule also displayed an area under the curve (AUC) at 24 h in series [5] of 16.1 µM·h. Also, the “fold change (FC)” value with Mus musculus [7] is recorded as 2.8; with Mus musculus [8] it was 1.9.
With `Cc1cc(OCc2nc(-c3ccc(C(=O)N4CCCCC4)cc3)c(-c3ccc(OC(F)(F)F)cc3)o2)ccc1OCC(=O)O`, the figures for the EC50 in series [10], in series [11] and in series [9] were over 10000 nM, 1150 nM and 18 nM, respectively. The molecule further came in with an Efficacy in series [12] of 43%.
Taken in the same sequence, the figures for `Cc1cc(OCc2nc(-c3ccc(C(=O)N(C)C(C)C)cc3)c(-c3ccc(OC(F)(F)F)cc3)s2)ccc1OCC(=O)O` were 1200 nM, 690 nM, 2 nM and 65%.
The molecule `Cc1cc(OCc2nc(-c3ccc(OC(C)C)cc3)c(-c3cccc(OC(F)(F)F)c3)s2)ccc1OCC(=O)O` displayed a bioavailability in series [1] of 49%. In addition, the results for the EC50 in series [2], in series [6] and in [9] were 16 nM, 46 nM and 9 nM, respectively. This molecule had a half-life in series [3] of 3.2 h. The Cmax in [4] came to 2400 nM. The AUC at 24 h in series [5] is 20.3 µM·h. The “fold change (FC)” value came out at 1.9 with Mus musculus [7] and 1.7 in the series with Mus musculus [8].
